# Assay results published in patent US11512069B2, “TLR7/8 antagonists and uses thereof” (Merck Patent GmbH, priority 2016, dated 2022).
# Target: T1, TLR7 (Homo sapiens, UniProt Q9NYK1)
# T1 construct: expressed in transfected cells; host or cells: HEK cells carrying TLR7 and an NF-kB reporter read with Steady-Glo
# T1 sequence (Q9NYK1 27-1049): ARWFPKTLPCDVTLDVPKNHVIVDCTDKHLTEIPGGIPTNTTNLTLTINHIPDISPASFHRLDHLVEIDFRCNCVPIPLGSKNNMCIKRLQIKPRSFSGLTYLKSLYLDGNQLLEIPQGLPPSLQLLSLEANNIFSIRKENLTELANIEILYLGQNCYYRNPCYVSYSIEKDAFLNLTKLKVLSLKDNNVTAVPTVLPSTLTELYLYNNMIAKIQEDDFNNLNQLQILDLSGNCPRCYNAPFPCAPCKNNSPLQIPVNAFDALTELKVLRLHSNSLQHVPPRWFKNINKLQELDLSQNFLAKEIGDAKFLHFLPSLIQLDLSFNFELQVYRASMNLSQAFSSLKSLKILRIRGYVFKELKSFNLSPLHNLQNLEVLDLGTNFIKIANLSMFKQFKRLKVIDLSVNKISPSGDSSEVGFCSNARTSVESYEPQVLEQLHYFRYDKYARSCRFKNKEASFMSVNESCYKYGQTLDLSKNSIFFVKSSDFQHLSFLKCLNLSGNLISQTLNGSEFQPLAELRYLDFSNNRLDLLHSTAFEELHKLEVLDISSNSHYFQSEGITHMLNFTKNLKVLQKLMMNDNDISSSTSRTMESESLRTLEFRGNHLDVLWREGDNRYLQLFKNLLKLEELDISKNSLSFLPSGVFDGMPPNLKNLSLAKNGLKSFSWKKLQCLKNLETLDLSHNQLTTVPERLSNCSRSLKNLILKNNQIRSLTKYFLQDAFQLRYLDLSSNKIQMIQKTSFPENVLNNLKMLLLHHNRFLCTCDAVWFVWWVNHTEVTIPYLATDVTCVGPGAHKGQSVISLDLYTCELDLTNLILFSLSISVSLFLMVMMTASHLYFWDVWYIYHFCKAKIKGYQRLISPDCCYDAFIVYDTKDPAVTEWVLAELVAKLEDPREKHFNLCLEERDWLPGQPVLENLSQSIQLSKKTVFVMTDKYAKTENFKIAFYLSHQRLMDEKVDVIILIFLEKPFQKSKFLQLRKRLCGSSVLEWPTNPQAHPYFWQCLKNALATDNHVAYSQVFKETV
# Assay: HEK Cell Assay (TLR7/NFKb HEK reporter cells, Steady-Glo)
# Assay type: cell-based
# Settings: compound 30 min, then R*48 agonist 5 hours, Steady-Glo readout, read-out: Potency
# Protocol: Example 32: HEK Cell Assay
# Into 384 CulturePlates (Corning 3707) was placed 5000 c/w of TLR7/NFKb HEK cells in 30 uL DMEM without Phenil red (gibco #31053) and 10% i.a. FCS and 2 mM L-ZGLutamin. The cells were incubated for 24 h at 37 degrees Celsius, 10% carbon dioxide and 90% relative humidity, 3 uL of controls, standards, and compounds were dispensed to wells, incubated for 30 min then 3 uL of R*48 agonist in 20 mM Hepes was added. After incubation for 5 hours, it was allowed to stand at room temperature for 15 min, 10 uL of Steady-Glo substrate reagent was added and shake assay plate for 5 min at 1500 rpm. The assay plate was allowed to sit for 30 min at room temperature and then read plate on EnVision.
row,IC50,SMILES
1,1 to 20 µM,"COCCN[C@@H]1C[C@H](C)C[C@@H](c2ccc(C#N)c3nccnc23)C1 (relative stereo) [Compound 134, 8-[(1,trans-3,cis-5)-3-[(2-methoxyethyl)amino]-5-methylcyclohexyl]quinoxaline-5-carbonitrile]"
2,1 to 20 µM,"CC1CC(c2ccc(C(F)(F)F)c3ncccc23)CN(C(=O)CCN2CCN(C)CC2)C1 (stereo in doubt) [Compound 45, 3-(4-Methyl-piperazin-1-yl)-1-[(3S,5S)-3-methyl-5-(8-trifluoromethyl-quinolin-5-yl)-piperidin-1-yl]-propan-1-one]"
3,< 1 µM,"CC1CC(c2ccc(C#N)c3ncccc23)CN(C(=O)CC2CCN(C)CC2)C1 (stereo in doubt) [Compound 55, 5-{(3S,5R)-5-Methyl-1-[2-(1-methyl-piperidin-4-yl)-acetyl]-piperidin-3-yl}-quinoline-8-carbonitrile]"
4,< 1 µM,C[C@@H]1C[C@H](c2ccc(C#N)c3ncccc23)CN(C(=O)CC2CCN(C)CC2)C1 [Compound 1]
5,< 1 µM,C[C@@H]1CC(c2ccc(C#N)c3ncccc23)CN(C(=O)CC2CCN(C)CC2)C1 (stereo partly drawn) [Compound 2]
6,< 1 µM,"CC1CC(c2ccc(C(F)(F)F)c3ncccc23)CN(C(=O)CC2CCN(C)CC2)C1 (stereo not drawn) [Compound 3, 2-(1-Methyl-piperidin-4-yl)-1-[3-methyl-5-(8-trifluoromethyl-quinolin-5-yl)-piperidin-1-yl]-ethanone]"
7,1 to 20 µM,"CC1CC(c2ccc(C(F)(F)F)c3ncccc23)CN(C(=O)CCN2CCN(C)CC2)C1 (stereo not drawn) [Compound 11, 3-(4-Methyl-piperazin-1-yl)-1-[3-methyl-5-(8-trifluoromethyl-quinolin-5-yl)-piperidin-1-yl]-propan-1-one]"
8,> 20 µM,C[C@@H]1CC(c2ccc(C(F)(F)F)c3ncccc23)CN(C(=O)CCn2cccn2)C1 (stereo partly drawn) [Compound 12]
9,> 20 µM,CC1C[C@@H](c2ccc(C(F)(F)F)c3ncccc23)CN(C(=O)CN2CCOCC2)C1 (stereo partly drawn) [Compound 17]
10,< 1 µM,"CC1CC(c2ccc(C(F)(F)F)c3ncccc23)CN(C(=O)CC2CC3CCC(C2)N3C)C1 (stereo not drawn) [Compound 18, 2-(8-Methyl-8-aza-bicyclo[3.2.1]oct-3-yl)-1-[3-methyl-5-(8-trifluoromethyl-quinolin-5-yl)-piperidin-1-yl]-ethanone]"
11,> 20 µM,CC1C[C@@H](c2ccc(C#N)c3ncccc23)CN(C(=O)Cc2cccnc2)C1 (stereo partly drawn) [Compound 21]
12,< 1 µM,"CC1CC(c2ccc(Cl)c3ncccc23)CN(C(=O)CC2CCN(C)CC2)C1 (stereo not drawn) [Compound 22, 1-[3-(8-Chloro-quinolin-5-yl)-5-methyl-piperidin-1-yl]-2-(1-methyl-piperidin-4-yl)-ethanone]"
13,< 1 µM,CC1CC(c2ccc(C#N)c3ncccc23)CN(C(=O)CCC2CCN(C)CC2)C1 (stereo not drawn) [Compound 23]
14,1 to 20 µM,CC1C[C@H](c2ccc(C#N)c3ncccc23)CN(C(=O)CCc2cccnc2)C1 (stereo partly drawn) [Compound 25]
15,> 20 µM,CC1C[C@H](c2ccc(C#N)c3ncccc23)CN(C(=O)CC(F)(F)F)C1 (stereo partly drawn) [Compound 27]
16,< 1 µM,"C[C@@H]1C[C@H](c2ccc(C#N)c3ncccc23)CN(C(=O)CC2CCN(C)C2)C1 (stereo partly drawn) [Compound 35, cis-5-Methyl-1-[2-(1-methyl-pyrrolidin-3-yl)-acetyl]-piperidin-3-yl-quinoline-8-carbonitrile]"
17,< 1 µM,"C[C@@H]1C[C@H](c2ccc(C(F)(F)F)c3ncccc23)CN(C(=O)CC2CCN(C)CC2)C1 [Compound 42, 2-(1-Methyl-piperidin-4-yl)-1-[(3R,5R)-3-methyl-5-(8-trifluoromethyl-quinolin-5-yl)-piperidin-1-yl]-ethanone]"
18,1 to 20 µM,"C[C@H]1C[C@@H](c2ccc(C(F)(F)F)c3ncccc23)CN(C(=O)CC2CCN(C)CC2)C1 [Compound 43, 2-(1-Methyl-piperidin-4-yl)-1-[(3S,5S)-3-methyl-5-(8-trifluoromethyl-quinolin-5-yl)-piperidin-1-yl]-ethanone]"

row,IC50,SMILES
1,< 1 µM,"C[C@@H]1C[C@H](c2ccc(C(F)(F)F)c3ncccc23)CN(C(=O)CCN2CCN(C)CC2)C1 [Compound 44, 3-(4-Methyl-piperazin-1-yl)-1-[(3R,5R)-3-methyl-5-(8-trifluoromethyl-quinolin-5-yl)-piperidin-1-yl]-propan-1-one]"
2,< 1 µM,"CC(C)N1CCC(CC(=O)N2C[C@H](C)C[C@H](c3ccc(C#N)c4ncccc34)C2)CC1 [Compound 46, 5-{(3R,5R)-1-[2-(1-Isopropyl-piperidin-4-yl)-acetyl]-5-methyl-piperidin-3-yl}-quinoline-8-carbonitrile]"
3,1 to 20 µM,"CC(C)N1CCC(CC(=O)N2C[C@@H](C)C[C@@H](c3ccc(C#N)c4ncccc34)C2)CC1 [Compound 47, 5-{(3S,5S)-1-[2-(1-Isopropyl-piperidin-4-yl)-acetyl]-5-methyl-piperidin-3-yl}-quinoline-8-carbonitrile]"
4,> 20 µM,"COC(=O)CCN1CC(C)CC(c2ccc(C#N)c3ncccc23)C1 (stereo not drawn) [Compound 48, 3-[3-(8-Cyano-quinolin-5-yl)-5-methyl-piperidin-1-yl]-propionic acid methyl ester]"
5,> 20 µM,"CC1CC(c2ccc(C#N)c3ncccc23)CN(CCC(N)=O)C1 (stereo not drawn) [Compound 49, 3-[3-(8-Cyano-quinolin-5-yl)-5-methyl-piperidin-1-yl]-propionamide]"
6,> 20 µM,CNC(=O)CCN1CC(C)CC(c2ccc(C#N)c3ncccc23)C1 (stereo not drawn) [Compound 50]
7,< 1 µM,CC1CC(c2ccc(C#N)c3ncccc23)CN(CC2CCN(C)C2)C1 (stereo not drawn) [Compound 51]
8,< 1 µM,CC1CC(c2ccc(C#N)c3ncccc23)CN(CC2CCN(C)CC2)C1 (stereo not drawn) [Compound 52]
9,< 1 µM,"C[C@@H]1C[C@@H](c2ccc(C#N)c3ncccc23)CN(C(=O)CC2CCN(C)CC2)C1 [Compound 54, 5-{(3S,5R)-5-Methyl-1-[2-(1-methyl-piperidin-4-yl)-acetyl]-piperidin-3-yl}-quinoline-8-carbonitrile]"
10,1 to 20 µM,C[C@H]1C[C@@H](c2ccc(C#N)c3ncccc23)CN(C(=O)CC2CCN(C)CC2)C1 [Compound 56]
11,> 20 µM,"CC1CC(c2ccc(C(F)(F)F)c3ncccc23)CN(c2ccon2)C1 (stereo not drawn) [Compound 57, 5-(1-Isoxazol-3-yl-5-methyl-piperidin-3-yl)-8-trifluoromethyl-quinoline]"
12,1 to 20 µM,"CC1CC(c2ccc(C(F)(F)F)c3ncccc23)CN(c2cnn(C)c2)C1 (stereo not drawn) [Compound 58, 5-[5-Methyl-1-(1-methyl-1H-pyrazol-4-yl)-piperidin-3-yl]-8-trifluoromethyl-quinoline]"
13,1 to 20 µM,"CC1CC(c2ccc(C(F)(F)F)c3ncccc23)CN(c2ncco2)C1 (stereo not drawn) [Compound 59, 5-(5-Methyl-1-oxazol-2-yl-piperidin-3-yl)-8-trifluoromethyl-quinoline]"
14,1 to 20 µM,"C[C@@H]1C[C@@H](c2ccc(C#N)c3ncccc23)CN(C(=O)[C@@H](N)C2CC2)C1 [Compound 60, trans-1-((S)-2-Amino-2-cyclopropyl-acetyl)-5-methyl-piperidin-3-yl-quinoline-8-carbonitrile]"
15,1 to 20 µM,C[C@@H]1C[C@H](c2ccc(C#N)c3ncccc23)CN(C(=O)[C@@H](N)C2CC2)C1 [Compound 61]
16,< 1 µM,C[C@@H]1C[C@H](c2ccc(C#N)c3ncccc23)CN(C(=O)C[C@@H]2[C@H]3CN(C)C[C@@H]23)C1 [Compound 78]
17,< 1 µM,"Cc1ccc([C@@H]2C[C@@H](C)CN(C(=O)CC3CCN(C)CC3)C2)c2cccnc12 [Compound 80, 1-[(3R,5S)-3-Methyl-5-(8-methyl-quinolin-5-yl)-piperidin-1-yl]-2-(1-methyl-piperidin-4-yl)-ethanone]"
18,< 1 µM,"Cc1ccc([C@H]2C[C@@H](C)CN(C(=O)CC3CCN(C)CC3)C2)c2cccnc12 [Compound 81, 1-[(3R,5R)-3-Methyl-5-(8-methyl-quinolin-5-yl)-piperidin-1-yl]-2-(1-methyl-piperidin-4-yl)-ethanone]"
